# Measured values as given in article PMC3626286 (Chemical research in toxicology, 2013).
# “And” between values parts separate entries of the source, which are not always exact repeats. Equal values may be shown once. “Also recorded” adds a separate entry of the source. Read-outs that look alike come from different tables or passages of the source.
# Columns and labels:
# rat hepatocytes [1] = details: complete inhibition of acyl glucuronidation; cited from earlier work
# [2] = cited from earlier work
# rat hepatocytes [3] = details: cited from earlier work
# rat hepatocytes [4] = format: in vitro ADME; details: for fold decrease in concentration on ice versus 37°C: 0°C versus 37°C; for concentration formed at 60 min / fold decrease in concentration on ice versus 37°C: 60 min
# [5] = system: equine liver glutathione-S-transferase (GST); details: 1 μM, GSH 10 mM, equine liver GST 30 units/ml, pH 7.4, 37°C
# [6] = Chemical reactivity with GSH in buffer in the absence of GST; format: physicochemical; details: 1 μM, GSH 10 mM, 0.1 M potassium phosphate buffer pH 7.4, 37°C, without GST
# [7] = Chemical stability in 0.1 M potassium phosphate buffer; format: physicochemical; details: for duration of incubation with no detectable hydrolysis: 1 μM, 0.1 M potassium phosphate buffer pH 7.4, 37°C, data not shown; for chemical stability over the 24 h incubation (in words): buffer, physiological conditions
# equine liver GST = details: after 30 min incubation; cited from earlier work
# rat hepatocytes [8] = details: cited from earlier work; remark: listed apart in the source
# [9] = inhibitor 1 mM co-incubated with MFA
# [10] = MFA 100 μM, rat hepatocytes, 37°C
# [11] = in vitro in physiological buffer
compound,measurement,setting,value
CC(C(=O)O)c1ccccc1 (centres unmarked) [2-phenylpropionic acid],decrease in covalent adduct formation,rat hepatocytes [1],18.7%
C[C@H](C(=O)O[C@@H]1O[C@H](C(=O)O)[C@@H](O)[C@H](O)[C@H]1O)c1ccccc1 [(S)-2-phenylpropionic-1-β-O-acyl glucuronide],half-life of degradation (t1/2),[2],2.4 h
CC1(C)[C@H]2CC[C@]1(C)[C@H](O)C2 [(−)-borneol],decrease in MFA-1-O-G formation,"rat hepatocytes [3]; inhibitor 1 mM co-incubated with MFA (10 μM, 10 min)",91%
same,inhibition of MFA-GSH formation,rat hepatocytes [3]; [9],no inhibition
"Cc1cccc(Nc2ccccc2C(=O)O[C@@H]2O[C@H](C(=O)O)[C@@H](O)[C@H](O)[C@H]2O)c1C [MFA-1-O-G, mefenamic acid-1-O-acyl-glucuronide, reference compound]",half life of degradation,[2]; buffer under physiological conditions,~ 16 h
same,half life of degradation,"[2]; previously reported, also confirmed in the authors' laboratory",16.5 h
same,concentration formed at 60 min,rat hepatocytes [4]; [10],42200 nM
same,formation on ice (in words),rat hepatocytes [4]; rat hepatocytes on ice (0°C),nearly undetectable; also recorded: no MFA-1-O-G formation
same,reactivity towards GSH (rate of MFA-GSH formation) in the presence of GST,[5],0.07±0.01 nM MFA-GSH/min
same,transacylation of GSH (rate of MFA-GSH formation),[6],0.02±0.02 nM MFA-GSH/min
"Cc1cccc(Nc2ccccc2C(=O)OP(=O)(O)OC[C@H]2O[C@@H](n3cnc4c(N)ncnc43)[C@H](O)[C@@H]2O)c1C [MFA-AMP, mefenamic acid-acyl-adenylate]",duration of incubation with no detectable hydrolysis,[7],at least 24 h
same,chemical stability over the 24 h incubation (in words),[7],chemically stable
same,fold lower concentration than MFA-GSH,rat hepatocytes [4]; [10],19 fold
same,maximum concentration formed,rat hepatocytes [4]; [10],90.2 nM
same,time of maximum concentration,rat hepatocytes [4]; [10],20 sec and ~ 20 sec
same,concentration at which formation levelled off,rat hepatocytes [4]; rat hepatocytes on ice (0°C),94.1 nM
same,time to maximum concentration,rat hepatocytes [4]; rat hepatocytes on ice (0°C),1 min
same,reactivity towards GSH (rate of MFA-GSH formation) in the presence of GST,[5],1.25±0.28 nM MFA-GSH/min
same,transacylation of GSH (rate of MFA-GSH formation),[6],0.21±0.02 nM MFA-GSH/min
"Cc1cccc(Nc2ccccc2C(=O)SCCNC(=O)CCNC(=O)[C@H](O)C(C)(C)COP(=O)(O)OP(=O)(O)OC[C@H]2O[C@@H](n3cnc4c(N)ncnc43)[C@H](O)[C@@H]2OP(=O)(O)O)c1C [MFA-CoA, mefenamic acid-S-acyl-Coenzyme A]",duration of incubation with no detectable hydrolysis,[7],at least 24 h
same,fold lower concentration than MFA-GSH,rat hepatocytes [4]; [10],37 fold
same,time point until which undetectable,rat hepatocytes [4]; [10],4 min
same,concentration formed at 60 min,rat hepatocytes [4]; [10],45.6 nM
same,time point until which undetectable,rat hepatocytes [4]; rat hepatocytes on ice (0°C),20 min and 10 min
same,concentration formed at 60 min,rat hepatocytes [4]; rat hepatocytes on ice (0°C),14.1 nM
same,fold decrease in concentration on ice versus 37°C,rat hepatocytes [4]; rat hepatocytes,3.2 fold
same,reactivity towards GSH (rate of MFA-GSH formation) in the presence of GST,[5],3.38±0.04 nM MFA-GSH/min
same,transacylation of GSH (rate of MFA-GSH formation),[6],2.38±0.64 nM MFA-GSH/min
"Cc1cccc(Nc2ccccc2C(=O)SC[C@H](NC(=O)CC[C@H](N)C(=O)O)C(=O)NCC(=O)O)c1C [MFA-GSH, mefenamic acid-S-acyl-glutathione]",duration of incubation with no detectable hydrolysis,[7],at least 24 h
same,chemical stability over the 24 h incubation (in words),[7],stable
same,concentration formed at 60 min,rat hepatocytes [4]; [10],1700 nM
same,concentration formed at 60 min,rat hepatocytes [4]; rat hepatocytes on ice (0°C),83.9 nM
same,fold decrease in concentration on ice versus 37°C,rat hepatocytes [4]; rat hepatocytes,20 fold
same,degradation in the presence of equine liver GST,equine liver GST,10–11%
same,metabolic half life,rat hepatocytes [8],~ 8 min
CC(C)(Oc1ccc(Cl)cc1)C(=O)SCCNC(=O)CCNC(=O)C(O)C(C)(C)COP(=O)(O)OP(=O)(O)OCC1OC(n2cnc3c(N)ncnc32)C(O)C1OP(=O)(O)O (centres unmarked) [clofibric acid-S-acyl-CoA],degradation half life,[2]; [11],21 days
same,hydrolysis per day,[2]; [11],~ 2 % hydrolysis/day
CCCCCCCCCCCC(=O)O [lauric acid],inhibition of MFA-CoA formation,rat hepatocytes [3]; [9],58%
same,inhibition of MFA-GSH formation,rat hepatocytes [3]; [9],66%
CC(C)(COP(=O)(O)OP(=O)(O)OC[C@H]1O[C@@H](n2cnc3c(N)ncnc32)[C@H](O)[C@@H]1OP(=O)(O)O)[C@@H](O)C(=O)NCCC(=O)NCCSC(=O)Cc1ccccc1 [phenylacetyl-S-acyl-CoA],stability after one day of incubation (in words),[2],completely stable
Cc1cc(CC(=O)O[C@@H]2O[C@H](C(=O)O)[C@@H](O)[C@H](O)[C@H]2O)n(C)c1C(=O)c1ccc(Cl)cc1 [zomepirac-1-β-O-acyl glucuronide],half-life of degradation (t1/2),[2],0.45 h
